Test results: ChEMBL document CHEMBL5653631, “A Potent and Selective ULK1 Inhibitor Suppresses Autophagy and Sensitizes Cancer Cells to Nutrient Stress” (iScience, 2018)

Assays:
[1] = molecular target: T1, Protein kinase C zeta type (Homo sapiens) (UniProt Q05513); assay: Inhibition of human recombinant PKCz at 15 nM related to control ULK1
T1 sequence (whole entry): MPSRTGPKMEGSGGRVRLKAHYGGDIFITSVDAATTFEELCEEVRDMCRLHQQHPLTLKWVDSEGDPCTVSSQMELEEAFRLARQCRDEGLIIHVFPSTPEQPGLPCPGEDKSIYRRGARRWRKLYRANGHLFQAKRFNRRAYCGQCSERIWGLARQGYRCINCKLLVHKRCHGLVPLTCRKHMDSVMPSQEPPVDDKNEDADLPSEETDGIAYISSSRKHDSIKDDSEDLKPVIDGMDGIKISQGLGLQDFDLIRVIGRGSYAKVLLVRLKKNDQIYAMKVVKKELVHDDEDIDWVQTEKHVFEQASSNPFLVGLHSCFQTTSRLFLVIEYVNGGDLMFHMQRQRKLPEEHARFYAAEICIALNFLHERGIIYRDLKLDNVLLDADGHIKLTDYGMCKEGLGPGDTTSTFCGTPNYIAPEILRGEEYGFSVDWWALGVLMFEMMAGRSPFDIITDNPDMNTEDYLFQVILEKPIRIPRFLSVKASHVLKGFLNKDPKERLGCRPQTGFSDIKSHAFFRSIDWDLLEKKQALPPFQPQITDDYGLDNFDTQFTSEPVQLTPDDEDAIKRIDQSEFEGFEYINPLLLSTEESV

[2] = molecular target: Dual specificity tyrosine-phosphorylation-regulated kinase 1A (Homo sapiens) (UniProt Q13627); assay: Inhibition of human recombinant DYRK1A at 40 nM related to control ULK1
[3] = molecular target: T2, Ephrin type-B receptor 1 (Homo sapiens) (UniProt P54762); assay: Inhibition of human recombinant EphB1 at 40 nM related to control ULK1
T2 sequence (whole entry): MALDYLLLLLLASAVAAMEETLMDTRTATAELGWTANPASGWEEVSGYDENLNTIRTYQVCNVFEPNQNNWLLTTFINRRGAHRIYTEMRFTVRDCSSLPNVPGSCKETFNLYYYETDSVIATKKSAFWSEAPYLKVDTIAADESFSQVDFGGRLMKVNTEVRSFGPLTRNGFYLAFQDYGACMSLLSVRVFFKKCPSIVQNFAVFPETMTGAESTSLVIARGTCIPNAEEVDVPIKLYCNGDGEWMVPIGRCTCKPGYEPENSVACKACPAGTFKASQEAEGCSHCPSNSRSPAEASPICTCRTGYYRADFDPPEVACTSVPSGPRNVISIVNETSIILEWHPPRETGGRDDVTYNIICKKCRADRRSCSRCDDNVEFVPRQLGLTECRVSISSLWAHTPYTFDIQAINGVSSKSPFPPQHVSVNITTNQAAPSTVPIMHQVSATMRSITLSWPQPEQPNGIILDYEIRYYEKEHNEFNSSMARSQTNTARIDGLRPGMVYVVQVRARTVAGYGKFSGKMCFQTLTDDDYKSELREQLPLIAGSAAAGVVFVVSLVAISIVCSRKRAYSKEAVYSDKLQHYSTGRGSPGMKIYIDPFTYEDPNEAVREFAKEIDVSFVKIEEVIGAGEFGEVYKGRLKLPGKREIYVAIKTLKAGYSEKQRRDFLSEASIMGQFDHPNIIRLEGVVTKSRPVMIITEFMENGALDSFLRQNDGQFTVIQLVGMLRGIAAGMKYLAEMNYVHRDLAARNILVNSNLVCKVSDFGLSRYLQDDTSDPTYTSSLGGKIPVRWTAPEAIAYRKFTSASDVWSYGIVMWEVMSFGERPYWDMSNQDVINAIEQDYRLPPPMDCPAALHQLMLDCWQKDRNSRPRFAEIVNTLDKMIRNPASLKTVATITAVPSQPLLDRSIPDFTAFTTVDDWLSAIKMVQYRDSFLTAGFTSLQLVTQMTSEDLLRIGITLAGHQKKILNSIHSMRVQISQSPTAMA

[4] = molecular target: T3, Inhibitor of nuclear factor kappa-B kinase subunit epsilon (Homo sapiens) (UniProt Q14164); assay: Inhibition of human recombinant IKKe at 40 nM related to control ULK1
T3 sequence (whole entry): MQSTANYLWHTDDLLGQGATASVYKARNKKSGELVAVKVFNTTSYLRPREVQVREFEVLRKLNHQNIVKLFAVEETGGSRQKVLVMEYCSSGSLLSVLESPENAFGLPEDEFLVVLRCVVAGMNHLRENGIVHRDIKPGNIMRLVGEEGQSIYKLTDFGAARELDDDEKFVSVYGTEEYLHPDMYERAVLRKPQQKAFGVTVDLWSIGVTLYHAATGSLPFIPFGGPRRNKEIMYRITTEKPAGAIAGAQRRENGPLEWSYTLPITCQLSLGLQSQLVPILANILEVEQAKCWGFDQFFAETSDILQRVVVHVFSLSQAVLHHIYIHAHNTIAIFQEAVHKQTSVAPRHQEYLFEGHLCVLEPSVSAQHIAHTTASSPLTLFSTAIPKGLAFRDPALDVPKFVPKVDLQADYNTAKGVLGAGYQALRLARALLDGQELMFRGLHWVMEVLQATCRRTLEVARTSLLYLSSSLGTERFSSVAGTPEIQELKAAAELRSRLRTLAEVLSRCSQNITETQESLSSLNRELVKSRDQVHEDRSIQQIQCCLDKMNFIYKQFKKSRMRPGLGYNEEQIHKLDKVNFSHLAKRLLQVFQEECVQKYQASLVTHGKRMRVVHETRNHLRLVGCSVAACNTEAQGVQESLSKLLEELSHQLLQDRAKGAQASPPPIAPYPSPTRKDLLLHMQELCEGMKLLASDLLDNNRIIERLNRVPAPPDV

Q: How did the fold change (FC) [1] turn out when CC(C)[C@H](NC(=O)c1cc(-c2cnn3cc(-c4ccc(OCCN5CCCCC5)cc4)cnc23)cs1)C(F)(F)F was run?
A: Its fold change (FC) is 0.

Q: O=C(N[C@@H](C1CC1)C(F)(F)F)c1cc(-c2cnn3cc(-c4ccc(F)cc4)cnc23)cs1 was tested. Which fold change (FC) [2] did it give?
A: The fold change (FC) was 0.59.

Q: And the fold change (FC) [3]?
A: The fold change (FC) was 0.01.

Q: And the fold change (FC) [4]?
A: Its fold change (FC) is 0.41.
